Test results as given in patent publication US20230040182A1, “ARYL HETEROBICYCLIC COMPOUNDS AS Kv1.3 POTASSIUM SHAKER CHANNEL BLOCKERS” (priority 2019, published 2023).

Tests used:
[1] = biological target: T1, hERG channel (Homo sapiens, UniProt Q12809); assay: hERG electrophysiology, automated whole-cell patch clamp (Patchliner); type: cell-based; conditions: CHO-K1 cells stably expressing hERG; whole-cell current, Hill fit
T1 construct: expressed in transfected cells
Description: Example 10. Evaluation of hERG Activities
This assay is used to evaluate the disclosed compounds' inhibition activities against the hERG channel.
CHO-K1 cells stably expressing hERG were grown in Ham's F-12 Medium with Glutamine containing 10% heat-inactivated FBS, 1% Penicillin/Streptomycin, Hygromycin (100 μg/ml) and G418 (100 μg/ml). Cells were grown in culture flasks at 37° C. in a 5% CO2-humidified incubator.
(§1) The cells were bathed in an extracellular solution containing 140 mM NaCl, 4 mM KCl, 2 mM CaCl2), 1 mM MgCl2, 5 mM Glucose, 10 mM HEPES; pH adjusted to 7.4 with NaOH; 295-305 mOsm. The internal solution contained 50 mM KCl, 10 mM NaCl, 60 mM KF, 20 mM EGTA, 10 mM HEPES; pH adjusted to 7.2 with KOH; 285 mOsm. All compounds were dissolved in DMSO at 30 mM. Compound stock solutions were freshly diluted with external solution to concentrations of 30 nM, 100 nM, 300 nM, 1 μM, 3 μM, 10 μM, 30 μM and 100 μM. The highest content of DMSO (0.3%) was present in 100 μM.
The voltage protocol (see Table B) was designed to simulate voltage changes during a cardiac action potential with a 300 ms depolarization to +20 mV (analogous to the plateau phase of the cardiac action potential), a repolarization for 300 ms to −50 mV (inducing a tail current) and a final step to the holding potential of −80 mV. The pulse frequency was 0.3 Hz. Control (compound-free) and compound pulse trains for each compound concentration applied contained 70 pulses.
(§2) Whole-cell current recordings and compound application were enabled by means of an automated patch clamp platform Patchliner (Nanion). EPC 10 patch clamp amplifier (HEKA) along with Patchmaster software (HEKA Elektronik Dr. Schulze GmbH) was used for data acquisition. Data were sampled at 10 kHz without filtering. Increasing compound concentrations were applied consecutively to the same cell without washouts in between.
(§3) AUC and PEAK values were obtained with Patchmaster (HEKA Elektronik Dr. Schulze GmbH). To determine IC50 the last single pulse in the pulse train corresponding to a given compound concentration was used. Obtained AUC and PEAK values in the presence of compound were normalized to control values in the absence of compound. Using Origin (OridinLab), IC50 was derived from data fit to Hill equation: Icompound/Icontrol=(100−A)/(1+([compound]/IC50)nH)+A, where IC50 is the concentration at which current inhibition is half-maximal, [compound] is the applied compound concentration, A is the fraction of current that is not blocked and nH is the Hill coefficient.

[2] = biological target: T2, Kv1.3 potassium channel (Homo sapiens, UniProt P22001); assay: Kv1.3 potassium channel blocker activity, automated whole-cell patch clamp (Patchliner); type: cell-based; conditions: CHO-K1 cells stably expressing Kv1.3; whole-cell current, Hill fit
T2 construct: expressed in transfected cells
T2 sequence (P22001 whole entry): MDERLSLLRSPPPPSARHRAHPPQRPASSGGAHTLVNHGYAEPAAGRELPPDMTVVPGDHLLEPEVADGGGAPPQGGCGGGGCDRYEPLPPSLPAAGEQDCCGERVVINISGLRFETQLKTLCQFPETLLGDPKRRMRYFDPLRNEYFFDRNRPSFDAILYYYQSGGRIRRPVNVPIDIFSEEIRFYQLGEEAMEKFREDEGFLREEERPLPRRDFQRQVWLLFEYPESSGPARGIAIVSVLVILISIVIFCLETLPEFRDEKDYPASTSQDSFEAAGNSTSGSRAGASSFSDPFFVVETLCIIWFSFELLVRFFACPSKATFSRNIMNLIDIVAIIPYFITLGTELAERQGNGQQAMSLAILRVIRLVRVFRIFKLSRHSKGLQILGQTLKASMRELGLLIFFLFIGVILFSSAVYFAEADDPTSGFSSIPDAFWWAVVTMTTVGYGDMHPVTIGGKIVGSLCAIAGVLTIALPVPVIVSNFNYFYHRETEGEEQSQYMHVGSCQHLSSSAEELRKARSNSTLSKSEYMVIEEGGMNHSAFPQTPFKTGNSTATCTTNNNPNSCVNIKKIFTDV
Description: Example 9. Evaluation of Kv1.3 Potassium Channel Blocker Activities
This assay is used to evaluate the disclosed compounds' activities as Kv1.3 potassium channel blockers.
CHO-K1 cells stably expressing Kv1.3 were grown in DMEM containing 10% heat-inactivated FBS, 1 mM Sodium Pyruvate, 2 mM L-Glutamine and G418 (500 μg/ml). Cells were grown in culture flasks at 37° C. in a […] incubator.
as §1, with “CaCl2,” for “CaCl2),”
The currents were evoked by applying 100 ms depolarizing pulses from −90 mV (holding potential) to +40 mV were applied with 0.1 Hz frequency. Control (compound-free) and compound pulse trains for each compound concentration applied contained 20 pulses. 10-second breaks were used between pulse trains (see Table A below).
as §2, with “(Nanion Technologies GmbH).” for “(Nanion).”, “(HEKA Elektronik Dr. Schulze GmbH)” for “(HEKA)”, “filtering. Passive leak currents were subtracted online using a P/4 procedure (HEKA Elektronik Dr. Schulze GmbH).” for “filtering.”, “between. Total compound incubation time before the next pulse train was not longer than 10 seconds. Peak current inhibition was observed during compound equilibration.” for “between.”
as §3, with “AUC and peak values were” for “AUC and PEAK values were”, “To determine IC50, the last” for “To determine IC50 the last”, “AUC and peak values in” for “AUC and PEAK values in”, “where IC50 value is the” for “where IC50 is the”

T1 sequence (Q12809 whole entry): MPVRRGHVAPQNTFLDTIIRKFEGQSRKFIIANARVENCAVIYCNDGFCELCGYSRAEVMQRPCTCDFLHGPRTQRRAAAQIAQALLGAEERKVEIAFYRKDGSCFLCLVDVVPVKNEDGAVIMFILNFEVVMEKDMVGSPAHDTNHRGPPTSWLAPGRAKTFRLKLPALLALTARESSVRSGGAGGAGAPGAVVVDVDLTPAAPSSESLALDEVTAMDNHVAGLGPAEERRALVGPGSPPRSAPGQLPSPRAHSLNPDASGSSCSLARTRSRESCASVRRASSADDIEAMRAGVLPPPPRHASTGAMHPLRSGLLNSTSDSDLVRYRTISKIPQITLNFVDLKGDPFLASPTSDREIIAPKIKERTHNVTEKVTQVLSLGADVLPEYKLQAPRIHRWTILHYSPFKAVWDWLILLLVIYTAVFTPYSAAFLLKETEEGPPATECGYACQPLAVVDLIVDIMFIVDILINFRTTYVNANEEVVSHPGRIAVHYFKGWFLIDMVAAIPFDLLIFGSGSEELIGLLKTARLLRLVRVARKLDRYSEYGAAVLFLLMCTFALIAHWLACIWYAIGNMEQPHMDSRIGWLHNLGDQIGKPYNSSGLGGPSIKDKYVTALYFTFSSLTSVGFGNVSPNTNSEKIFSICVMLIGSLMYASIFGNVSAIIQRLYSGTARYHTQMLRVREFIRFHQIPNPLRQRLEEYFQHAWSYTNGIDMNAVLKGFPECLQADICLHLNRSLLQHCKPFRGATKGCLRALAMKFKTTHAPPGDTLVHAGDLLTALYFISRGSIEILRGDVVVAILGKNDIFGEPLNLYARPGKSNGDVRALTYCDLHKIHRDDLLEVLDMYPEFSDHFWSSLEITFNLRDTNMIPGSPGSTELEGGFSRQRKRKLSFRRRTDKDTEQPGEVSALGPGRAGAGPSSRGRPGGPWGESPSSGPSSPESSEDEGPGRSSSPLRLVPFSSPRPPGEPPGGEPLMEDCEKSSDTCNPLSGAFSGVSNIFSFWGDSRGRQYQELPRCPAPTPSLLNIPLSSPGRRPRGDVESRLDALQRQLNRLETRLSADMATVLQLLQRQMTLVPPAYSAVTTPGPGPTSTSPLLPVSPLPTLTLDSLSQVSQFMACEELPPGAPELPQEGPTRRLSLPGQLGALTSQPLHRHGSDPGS

SMILES | IC50 [1] [µM] | IC50 [2] [µM]
O=C1[C@@H]2C[C@H](c3c(O)ccc(Cl)c3Cl)CCN2C(=O)CN1C1CC(O)C1 (relative stereo) [Compound 20, (8R,9aS)-rel-8-(2,3-dichloro-6-hydroxyphenyl)-2-(3-hydroxycyclobutyl)-hexahydropyrido[1,2-a]pyrazine-1,4-dione] | > 30 | < 1
Cc1cc(O)c([C@@H]2CCN3C(=O)[C@@H](CO)NC(=O)[C@@H]3C2)c(Cl)c1Cl (relative stereo) [Compound 22, (8R,9aS)-rel-8-(2,3-dichloro-6-hydroxy-4-methylphenyl)-3-((3R)-hydroxymethyl)-hexahydro-2H-pyrido[1,2-a]pyrazine-1,4-dione] | > 30 | < 1
COC[C@H]1NC(=O)[C@@H]2C[C@H](c3c(O)ccc(Cl)c3Cl)CCN2C1=O (relative stereo) [Compound 55, (8R,9aS)-rel-8-(2,3-dichloro-6-hydroxyphenyl)-3-((3R)-methoxymethyl)-hexahydro-2H-pyrido[1,2-a]pyrazine-1,4-dione] | > 30 | < 1
O=C1NC(=O)N2CC[C@H](c3c(O)ccc(Cl)c3Cl)C[C@@H]12 (single isomer, unassigned; diastereoisomer 1) [Compound 9, 7-(2,3-dichloro-6-hydroxyphenyl)tetrahydro-imidazo[1,5-a]pyridine-1,3(2H,5H)-dione diastereoisomer 1] | > 30 | < 1
O=C1[C@@H]2C[C@H](c3c(O)ccc(Cl)c3Cl)CCN2C(=O)CN1C1CC(O)C1 (single isomer, unassigned; isomer 1) [Compound 14, 8-(2,3-dichloro-6-hydroxyphenyl)-2-[3-hydroxycyclobutyl]-hexahydropyrido[1,2-a]pyrazine-1,4-dione isomer 1] | > 30 | < 1
O=C1[C@@H]2C[C@H](c3c(O)ccc(Cl)c3Cl)CCN2C(=O)CN1C1CC(O)C1 (single isomer, unassigned; isomer 2) [Compound 44, 8-(2,3-dichloro-6-hydroxyphenyl)-2-[3-hydroxycyclobutyl]-hexahydropyrido[1,2-a]pyrazine-1,4-dione isomer 2] | > 30 | < 1
O=C1[C@@H]2C[C@H](c3c(O)ccc(Cl)c3Cl)CCN2C(=O)[C@H]2C[C@H](O)CN12 (single isomer, unassigned; isomer 2) [Compound 65, 7-(2,3-dichloro-6-hydroxyphenyl)-2-hydroxyhexahydro-1H-pyrido[1,2-a]pyrrolo[1,2-d]pyrazine-5,11(5aH,11aH)-dione isomer 2] | < 30 | < 1
O=C1[C@@H]2C[C@H](O)CN2C(=O)[C@@H]2C[C@H](c3c(O)ccc(Cl)c3Cl)CCN12 (single isomer, unassigned; isomer 4) [Compound 35, 7-(2,3-dichloro-6-hydroxyphenyl)-2-hydroxyhexahydro-1H-pyrido[1,2-a]pyrrolo[1,2-d]pyrazine-5,11(5aH,11aH)-dione isomer 4] | < 30 | < 1
O=C1[C@@H]2C[C@H](c3c(O)ccc(Cl)c3Cl)CCN2C(=O)CN1C1CNC1 [Compound 1, (8R,9aS)-2-(azetidin-3-yl)-8-(2,3-dichloro-6-hydroxyphenyl)-octahydro-1H-pyrido[1,2-a]pyrazine-1,4-dione] | > 30 | < 1
O=C1N[C@H](CO)C(=O)N2CC[C@@H](c3c(O)ccc(Cl)c3Cl)C[C@@H]12 [Compound 2, (3R,8R,9aS)-8-(2,3-dichloro-6-hydroxyphenyl)-3-(hydroxymethyl)-hexahydro-2H-pyrido[1,2-a]pyrazine-1,4-dione] | > 30 | < 1
C[C@H](O)[C@H]1NC(=O)[C@@H]2C[C@H](c3c(O)ccc(Cl)c3Cl)CCN2C1=O [Compound 3, (3R,8R,9aS)-8-(2,3-dichloro-6-hydroxyphenyl)-3-[(1S)-1-hydroxyethyl]-hexahydro-2H-pyrido[1,2-a]pyrazine-1,4-dione] | > 30 | < 1
CN1C(=O)[C@@H]2C[C@H](c3c(O)ccc(Cl)c3Cl)CCN2C(=O)[C@H]1CO [Compound 6, (3R,8R,9aS)-8-(2,3-dichloro-6-hydroxyphenyl)-3-(hydroxymethyl)-2-methyl-hexahydropyrido[1,2-a]pyrazine-1,4-dione] | > 30 | < 1
O=C1NCCC(=O)N2CCC(c3c(O)ccc(Cl)c3Cl)CC12 (stereo not drawn) [Compound 8, 9-(2,3-dichloro-6-hydroxyphenyl)-decahydropyrido[1,2-a][1,4]diazepine-1,5-dione] | > 30 | < 1
O=C1[C@H]2[C@@H](O)CCN2C(=O)[C@@H]2C[C@H](c3c(O)ccc(Cl)c3Cl)CCN12 [Compound 12, (1S,5aS,7R,11aR)-7-(2,3-dichloro-6-hydroxyphenyl)-1-hydroxyhexahydro-1H-pyrido[1,2-a]pyrrolo[1,2-d]pyrazine-5,11(5aH,11aH)-dione] | > 30 | < 1
C[C@@H](O)[C@H]1NC(=O)[C@@H]2C[C@H](c3c(O)ccc(Cl)c3Cl)CCN2C1=O [Compound 24, (3R,8R,9aS)-8-(2,3-dichloro-6-hydroxyphenyl)-3-[(1R)-1-hydroxyethyl]-hexahydro-2H-pyrido[1,2-a]pyrazine-1,4-dione] | > 30 | < 1
O=C1[C@@H]2C[C@H](c3c(O)ccc(Cl)c3Cl)CCN2C(=O)CN1CCO [Compound 26, (8R,9aS)-8-(2,3-dichloro-6-hydroxyphenyl)-2-(2-hydroxyethyl)-hexahydropyrido[1,2-a]pyrazine-1,4-dione] | > 30 | < 1
CC(C)[C@H](O)[C@H]1NC(=O)[C@@H]2C[C@H](c3c(O)ccc(Cl)c3Cl)CCN2C1=O [Compound 30, (3R,8R.9aS)-8-(2,3-dichloro-6-hydroxyphenyl)-3-[(1S)-1-hydroxy-2-methylpropyl]-hexahydro-2H-pyrido[1,2-a]pyrazine-1,4-dione] | > 30 | < 1
O=C1[C@@H]2C[C@H](c3c(O)ccc(Cl)c3Cl)CCN2C(=O)CN1C(CO)CO [Compound 32, (8R,9aS)-8-(2,3-dichloro-6-hydroxyphenyl)-2-(1,3-dihydroxypropan-2-yl)hexahydro-4H-pyrido[1,2-a]pyrazine-1,4(6H)-dione] | > 30 | < 1
